Experimental data: US20040220085A1, “Compositions for nucleic acid delivery” (priority 2003, published 2004)

What was measured:
Format in all cases: cell-based, human
[1] = system: JJ5 breast cancer cells; assay: Growth inhibition assay against JJ5 breast cancer cells; settings: 4 days culture
Experimental: JJ5 breast cancer cells (prepared from BCBM JJ5) expressing approximately 10^6 epidermal growth factor receptors/cell were incubated with EGF-^111In-labeled transferrin composition, unlabeled hEGF or ^111In-oxine, centrifuged to remove free ligand, then assayed and seeded (10^6 cells/dish) into 35 mm culture dishes. Growth medium was added and the cells were cultured at 37° C./5% CO^2 for 4 days. The cells were then recovered by trypsinization and counted in a hemocytometer. Control dishes contained cells cultured in growth medium containing ^111In-DTPA or growth medium alone.

[2] = system: JJ5 breast cancer cells; assay: Cytotoxicity (colony-forming) assay against JJ5 breast cancer cells; settings: 14 days
Experimental: JJ5 breast cancer cells were incubated with increasing amounts EGF-^111In-labeled transferrin composition or ^111In-oxine, centrifuged to remove free ligand, assayed and then seeded into 50 mm culture dishes. The number of cells seeded was varied from 3×10^4 to 3×10^6cells to obtain approximately 400 viable colonies/dish taking into account the plating efficiency and the expected level of cytotoxicity. Control dishes contained JJ5 breast cancer cells which were incubated with normal saline. Growth medium was added and the cells were cultured at 37° C./5% CO^2 for 14 days. The growth medium was removed and the colonies were stained with methylene blue (1% in a 1:1 mixture of ethanol and water) then washed twice. The number of colonies per dish was counted using a manual colony counter (Manostat Corp). The plating efficiency was calculated by dividing the number of colonies observed by the number of cells seeded in each dish. The surviving fraction at increasing amounts of EGF-^111In-labeled transferrin composition or ^111In-oxine was calculated by dividing the plating efficiency for dishes containing treated cells with that observed for control dishes with normal saline.

[3] = system: JJ5 Breast Cancer cells (EGFR); assay: Binding of EGF-111In-labeled transferrin composition to JJ5 breast cancer cells
Experimental: For the normal breast cell line HBL-100, 8000 EGFR/cell has been reported. The expression of EGFR in breast cancer cell lines has a reported range of 800 EGFR/cell for MCF-7 cells to 10^6 EGFR/cell for MDA-MB-468 cells. […] Utilizing the Auger electron emitter ^111In was used in the initial experiments to illustrate the utility of the invention using EGF-^111In-labeled transferrin compositions. The EGF-^111In-labeled transferrin (0.25-80 ng) was incubated with 1.5×10^6 cells/dish JJ5 Breast Cancer (prepared from BCBM JJ5) cells in 1 mL of 0.1% human serum albumin in 35 mm multiwell culture dishes at 37° C. for 30 minutes. The cells were transferred to a centrifuge tube and centrifuged. The cell pellet was separated from the supernatant and counted in a g-scintillation counter to determine bound (B) and free (F) radioactivity. Non-specific binding was determined by conducting the assay in 100 nM hEGF. The kinetics of binding was determined by incubating 1 ng of EGF-^111In-labeled transferrin composition with 3×10^6 JJ5 Breast Cancer cells at 37° C. and determining the proportion of radioactivity bound to the cells at various times up to 24 hours. Internalized fraction was measured by determining the proportion of radioactivity which could not be displaced from the cell surface by 100 nM hEGF. Cell-associated binding (surface-binding and intracellular accumulation) was expressed as a percentage of medium radioactivity bound per mg of cell study protein.

Molecule	growth inhibition of the JJ5 cells ([1]; 3.5 pCi/cell)	cell killing ([2]; <6 pCi/cell)	growth inhibition of the JJ5 cells compared to the medium control ([1]; 3.4 pCi/cell)	internalization by cancer cells ([3]; JJ5 cells)	number of binding sites ([3]; JJ5 cells)	kinetics of binding to the breast cancer cells ([3]; JJ5 cells, 37° C.)	time retained by the breast cancer cells ([3]; JJ5 cells, 37° C.)	affinity constant for binding to JJ5 cells ([3]; JJ5 cells, 37° C., 30 minutes)	111In radioactivity lost from the cells in vitro ([3]; over a 24 hour period at 37° C.)	reduction in cell survival for JJ5 cells ([2]; 8 pCi/cell)
[In+3].[O-]c1cccc2cccnc12.[O-]c1cccc2cccnc12.[O-]c1cccc2cccnc12 [^111In-oxine, reference compound]	91%	greater than 99%								
EGF-^111In-labeled transferrin composition: human EGF linked to transferrin radiolabeled with the Auger electron emitter 111In at the iron-binding sites			83%	rapidly internalized	2.7×10^6	rapidly bound	at least 24 hours	8e+08 L/mol	< 8%	99%
